Where two headings read alike, the source gives them in different places. Positions of bridges follow the written chain, without caps; N, C: chain ends. Non-standard residues stand in square brackets, D forms with d. Residues, ends and D or L forms follow the SMILES beside them. *: point of attachment. Benzoyl(4-Ph) = O=C(c1ccc(-c2ccccc2)cc1)*; Decanoyl = CCCCCCCCCC(=O)*; Dap = NC[C@H](N)C(=O)O
Assays:
[1] = tested on: Staphylococcus aureus ATCC 6538; assay: microbe, parasite or virus in culture; type: cell-based; conditions: for MIC: S. aureus ATCC 6538, CAMHB, in presence of 50 mg L^-1 of CaCl2, 37 °C, 18 to 24 h, biological triplicate, maximum concentration 128 µg mL^-1
Procedure: Antimicrobial susceptibility testing was performed in biological triplicate by determining the minimum inhibitory concentrations (MIC) of the six malacidin analogues and the control antibiotics, penicillin G and daptomycin. Malacidin analogues 31, 36, 39, and 40 were prepared as 10 mg mL^-1 stock solutions in filter sterilised MilliQ water. Compounds 37, and 38 were prepared as 5 mg mL^-1 stock solutions in filter sterilised MilliQ water. Malacidin analogues were tested at a maximum concentration of 128 µg mL^-1. Bacterial inoculums of Staphylococcus aureus ATCC 6538 were prepared by diluting an overnight culture to a final optical density 600 nm (OD600) of 0.003 in cation adjusted Mueller Hinton broth (CAMH) to yield 5 × 10^5 CFU mL^-1 (final) in all assays. MIC assays were performed in 96-well microtiter plates in a total volume of 100 µL, and compounds were serially diluted across the plate in 2-fold dilutions. The MIC was reported as the lowest concentration of the test compound for which no growth occurred after incubation at 37 °C for 18 to 24 h. For all MIC testing CAMHB was supplemented with calcium (50 mg L^-1 final) as per the CLSI guidelines for daptomycin^17
Table S3. MIC values of simplified analogues 31, 36-40 in presence of 50 mg L^-1 of CaCl2.^aTesting was additionally performed in the absence of CaCl2 and no activity for any of the malacidin analogues was observed against S. aureus.

[2] = tested on: methicillin-resistant Staphylococcus aureus (MRSA), MRSA USA300; conditions: ref Hover et al., 2018, cited from earlier work
Text: In 2018, Brady et al. reported the isolation of malacidin A (1) as part of an extensive metagenomic mining study of bacterial DNA obtained from soil samples in search of novel bioactive natural products ([Owen et al., 2013]; [Hover et al., 2018]). […] Malacidin ... || FIGURE 1 Structure of malacidin A (1); non-canonical amino acids and the lipid tail are highlighted in purple; the undefined stereochemistry of β-carbon centers is indicated with an asterisk; the calcium-binding region residues are specified in red; the macrolactam bond is highlighted with blue shading. The stereochemistry and MIC values of the isolated malacidin A (1) ([Hover et al., 2018]) and synthesized diastereomers [this work 1a, the Li group 1b–1e ([Sun et al., 2020])] are shown above; X in 1 represents undefined stereochemistry. TEXT PRINTED IN THE PICTURE: Malacidin A (1): MIC (μg mL^ ...

[3] = cited from earlier work
Text: (§1) In 2018, Brady et al. reported the isolation of malacidin A (1) as part of an extensive metagenomic mining study of bacterial DNA obtained from soil samples in search of novel bioactive natural products ([Owen et al., 2013]; [Hover et al., 2018]). […] Malacidin ...

S. aureus = conditions: after repeated exposure to S. aureus; ref Hover et al., 2018; cited from earlier work
Text: as §1

[4] = tested on: vancomycin-resistant Enterococcus faecium (VRE); conditions: ref Hover et al., 2018; cited from earlier work
Text: as §1

[5] = ref Hover et al., 2018; cited from earlier work
Text: Evaluation of the antibacterial activity of the synthesized analogues 1a, 31 and 36–40 was then undertaken.

[6] = Ca2+ binding capability by 1H NMR in the presence of CaCl2; conditions: 1a 5.6 mM in D2O, CaCl2 at 1.5 mM and 15 mM, 500 MHz, 298 K
Procedure: Despite these differences, it was observed that the lipid sp^2 proton signals closely matched that of the natural product and no peaks arising from cis-trans isomerization were observed, indicating the tolerance of acid-sensitive lipid 25 to the optimized TFA side chain deprotection conditions and HPLC purification protocols.
[picture] Figure S16. Overlay of ^1H NMR spectra of synthetic 1a (5.6 mM) recorded at 500 MHz, 298 K in D2O spiked with Et3N (1.88 mM) and CaCl2 of varying concentrations: 0 mM CaCl2 (bottom), 1.5 mM CaCl2 (middle), 15 mM CaCl2 (top).

[7] = tested on: Staphylococcus aureus (ATCC 29213); type: cell-based
Procedure: MIC assays were performed in accordance with the CLSI recommended protocol^17 with minor adjustments. Briefly, Staphylococcus aureus (ATCC 29213) was grown at 37 °C with shaking (200 rpm) in Mueller Hinton (MH) broth supplemented with either 1.5 mM (near the concentration commonly employed for daptomycin testing [1.25 mM]) or 15 mM CaCl2 (in accordance with the reported testing of malacidin by Hover et al.^1) from an autoclaved stock solution of CaCl2. The respective Ca^2+ adjusted media was used for all further compound and culture dilutions. A two-fold dilution series of the test compounds was prepared in triplicate in polypropylene 96-well plates. Cultures of bacteria grown for 8 h were diluted accordingly in fresh media before adding 50 µL of inoculum to each well of the MIC plate, to achieve a final volume of 100 µL with a uniform CFU/ml of ~5 x10^5 in each well. A growth control (untreated) and sterility control (non-inoculated) well were included for each test compound replicate. Plates were incubated at 37 °C with shaking for 18 h before determining the MIC by visual inspection. MIC values were determined as the lowest concentration at which no growth was observed consistently across all three biological replicates of the assay and within triplicates of each test compound.
Table S2. MIC values of diastereomer 1a at different CaCl2 concentrations.

In the case of `CC1(C)S[C@@H]2[C@H](NC(=O)Cc3ccccc3)C(=O)N2[C@H]1C(=O)O` [Penicillin G, penicillin G], the MIC ([1]; Staphylococcus aureus, ATCC6538, read-out: MIC) is reported as 0.0312 µg/mL.
With `CC(C)[C@@H]1NC(=O)[C@@H](CC(=O)O)NC(=O)CNC(=O)[C@H](CC(=O)O)NC(=O)[C@H](CC(=O)O)NC(=O)[C@H](CCCCN)NC(=O)[C@@H](C(C)C)NC(=O)[C@@H](NC(=O)[C@H](CC(=O)O)NC(=O)c2ccc(-c3ccccc3)cc2)CNC(=O)[C@@H]2CCCN2C1=O` [compound 40] ({Benzoyl(4-Ph)}-D[Dap][dV]KDDG[dD]VP; lactam 2-C) the MIC [1] was >128 >128 µg/mL.
In the case of malacidin A, the MIC ([2]; MRSA) is listed as 0.2 to 0.8 µg/mL, the MIC ([2]; S.aureus strain: MRSA USA300, Figure 1) is listed as 0.2 to 0.8 µg/mL and the cytotoxicity [3] is listed as “non-cytotoxic”. The molecular target bound ([3]; preliminary mechanistic studies, ref Hover et al., 2018) was “binding to lipid II”, the induction of resistance (S. aureus) was “did not induce resistance” and the MIC [4] was 0.8 to 2.0 µg/mL. The “CaCl2 concentration of maximum activity” value [5] was 15 mM.
With `CCCCCCCCCC(=O)N[C@@H](CC(=O)O)C(=O)N[C@H]1CNC(=O)[C@@H]2CCCN2C(=O)[C@H](C(C)C)NC(=O)[C@@H](CC(=O)O)NC(=O)CNC(=O)[C@H](CC(=O)O)NC(=O)[C@H](CC(=O)O)NC(=O)[C@H](CCCCN)NC(=O)[C@@H](C(C)C)NC1=O` [compound 31] (Decanoyl-D[Dap][dV]KDDG[dD]VP; lactam 2-C) the “activity toward S. aureus” value ([1]; media supplemented with 1.25–1.5 mM CaCl2 (Supplementary Table S3)) was “no activity”.
With `CC(C)CC/C=C\C=C\C(=O)N[C@H](C(=O)N[C@@H]1C(=O)N[C@H](C(C)C)C(=O)N[C@@H](CCCCN)C(=O)N[C@@H]([C@H](O)C(=O)O)C(=O)N[C@@H](CC(=O)O)C(=O)NCC(=O)N[C@H]([C@@H](C)C(=O)O)C(=O)N[C@@H](C(C)C)C(=O)N2C[C@H](C)C[C@H]2C(=O)N[C@H]1C)[C@H](C)C(=O)O` [1a] the “interaction with Ca^2+ ions (signal shifts or line broadening in 1H NMR)” value [6] was “fails to interact with Ca^2+ ions”, the “activity toward S. aureus” value ([7]; 15 mM CaCl2 (Supplementary Table S2)) was “no activity” and the MIC ([7]; S.aureus strain: ATCC 29213, Figure 1, this work) was > 64 µg/mL. The “activity toward S. aureus” value ([7]; media supplemented with 1.25–1.5 mM CaCl2 (Supplementary Table S2)) was “no activity”.

From PMC8372822, “A Concise Synthetic Strategy Towards the Novel Calcium-dependent Lipopeptide Antibiotic, Malacidin A and Analogues” (Frontiers in Chemistry, 2021)
